# Laboratory results published in patent publication US8853424B2 (Japan Science and Technology Agency, priority 2008, dated 2014).
# What was measured:
# [1] = tested on: transglutaminase (TGase); experiment: Measurement of TG (TGase inhibitory activity, monodansyl cadaverine / N,N-dimethylcasein fluorescence, FDSS 3000); assay type: biochemical
# Description: For example, the method described in the Example can be performed.
# The compound of the present invention (10 mM, 1 μL) was taken in a 96-well plate (Nunc, 96 Well Black Plate with Clear Bottom), an enzyme reaction solution (100 mM HEPES-NaOH, pH 7.5, 1 mM CaCl2, 20 μM monodansyl cadaverine, 0.05 mg/mL N,N-dimethylcasein, 5 μg/mL TGase) (0.1 ml) was added and the mixture was sufficiently mixed without making foams. The mixture was set on a fluorescence drug screening system FDSS 3000 (Hamamatsu Photonics K.K.), and changes in the fluorescence wavelength per unit time at 340 nm were measured, based on which the TGase inhibitory activity of the compound of the present invention was calculated. As a control, change in the fluorescence when 1 μL of DMSO (dimethyl sulfoxide) was added instead of the compound of the present invention was taken as 100, and TG50 was when the activity decreased to half due to the compound of the present invention.
# [2] = tested on: Truncated N-terminal huntington 150 Q-EGFP-Neuron 2a cells; experiment: Measurement of x-Fold (polyglutamine aggregation inhibitory activity); assay type: cell-based
# Description: In the present invention, the polyglutamine aggregation inhibitory activity (x-Fold) can be measured, for example, by the method described in the Example.
# The number of the aggregated cells, and the total number of cells were counted by Array Scan V T1 (manufactured by Cellomics, Pittuburg, USA), and the ratio of the aggregated cells to the total number of cells was determined (x-Fold). […]
# [3] = TGase activity with compound (10 mM, 1 μL in 0.1 ml enzyme reaction solution), DMSO control taken as 100
# [4] = TGase inhibitory activity value, Table 1
# [5] = polyglutamine aggregation inhibitory activity, Table 1
# [6] = ratio of aggregated cells to total number of cells, compound 20 μM, 20 hr, almost 1 without compound, smaller = stronger inhibition
SMILES,"TGase activity remaining (% of DMSO control = 100) [1, 3]","TGase activity remaining (% of DMSO control = 100) [1, 4]","TGase activity remaining (% of DMSO control = 100) ([1]; TGase inhibitory activity value, Table 1, listed as 6023)","TGase activity remaining (% of DMSO control = 100) ([1]; TGase inhibitory activity value, Table 1, listed as 5009)","TGase activity remaining (% of DMSO control = 100) ([1]; TGase inhibitory activity value, Table 1, listed as 583)","x-Fold [2, 5]","x-Fold [2, 6]","x-Fold ([2]; polyglutamine aggregation inhibitory activity, Table 1, listed as 5009)","x-Fold ([2]; polyglutamine aggregation inhibitory activity, Table 1, listed as 583)"
"NCCOB(c1cc(F)cc(F)c1)c1cc(F)cc(F)c1 [Example 91, aminoethyl bis(3,5-difluorophenyl)borinate]",107,107,–,–,–,0.99,0.99,–,–
"CN(C)CCOB(c1cc(F)cc(F)c1)c1cc(F)cc(F)c1 [Example 92, dimethylaminoethyl bis(3,5-difluorophenyl)borinate]",106,106,–,–,–,1.00,1.00,–,–
"NCCOB(c1ccc(Cl)c(F)c1)c1ccc(Cl)c(F)c1 [Example 93, aminoethyl bis(4-chloro-3-fluorophenyl)borinate]",117,–,117,–,–,0.93,0.93,–,–
"CN(C)CCOB(c1ccc(Cl)c(F)c1)c1ccc(Cl)c(F)c1 [Example 94, dimethylaminoethyl bis(4-chloro-3-fluorophenyl)borinate]",114,114,–,–,–,0.95,0.95,–,–
"NCCC(N)C(=O)OB(c1ccc(Cl)c(F)c1)c1ccc(Cl)c(F)c1 (stereo not drawn) [Example 95, di(3-fluoro-4-chlorophenyl)(2,4-diaminolactonate-O,N)borane]",114,114,–,–,–,0.88,0.88,–,–
"NC(=O)CC[C@H](N)C(=O)OB(c1ccc(Cl)c(F)c1)c1ccc(Cl)c(F)c1 [Example 96, di(3-fluoro-4-chlorophenyl)(glutaminate-O,N)borane]",124,124,–,–,–,0.86,0.86,–,–
"OB(c1cc(F)cc(Cl)c1)c1cc(F)cc(Cl)c1 [Example 97, bis(3-chloro-5-fluorophenyl)borinic acid]",122,122,–,–,–,0.72,0.72,–,–
"OB(c1cc(Cl)ccc1F)c1cc(Cl)ccc1F [Example 98, bis(3-chloro-6-fluorophenyl)borinic acid]",111,111,–,–,–,0.95,0.95,–,–
"NCCOB(c1cc(F)cc(Cl)c1)c1cc(F)cc(Cl)c1 [Example 99, aminoethyl bis(3-chloro-5-fluorophenyl)borinate]",109,109,–,–,–,0.73,0.73,–,–
"NCCOB(c1cc(Cl)ccc1F)c1cc(Cl)ccc1F [Example 100, aminoethyl bis(3-chloro-6-fluorophenyl)borinate]",119,119,–,–,–,0.97,0.97,–,–
"CNCCOB(c1cc(Cl)ccc1F)c1cc(Cl)ccc1F [Example 101, methylaminoethyl bis(3-chloro-6-fluorophenyl)borinate]",122,122,–,–,–,1.02,1.02,–,–
"N#Cc1ccc(B(O)c2ccc(C#N)cc2)cc1 [Example 102, bis(4-cyanophenyl)borinic acid]",72,–,–,72,–,–,1.10,1.10,–
"N#Cc1ccc(B(OCCN)c2ccc(C#N)cc2)cc1 [Example 103, aminoethyl bis(4-cyanophenyl)borinate]",114,114,–,–,–,0.89,0.89,–,–
"N#Cc1ccc(B(OCc2ccccn2)c2ccc(C#N)cc2)cc1 [Example 104, 2-pyridylmethyl bis(4-cyanophenyl)borinate]",94,94,–,–,–,1.16,1.16,–,–

# Second part, led by results:
"TGase activity remaining (% of DMSO control = 100) [1, 3]","TGase activity remaining (% of DMSO control = 100) [1, 4]","TGase activity remaining (% of DMSO control = 100) ([1]; TGase inhibitory activity value, Table 1, listed as 6023)","TGase activity remaining (% of DMSO control = 100) ([1]; TGase inhibitory activity value, Table 1, listed as 5009)","TGase activity remaining (% of DMSO control = 100) ([1]; TGase inhibitory activity value, Table 1, listed as 583)",SMILES,"x-Fold [2, 5]","x-Fold [2, 6]","x-Fold ([2]; polyglutamine aggregation inhibitory activity, Table 1, listed as 5009)","x-Fold ([2]; polyglutamine aggregation inhibitory activity, Table 1, listed as 583)"
92,92,–,–,–,"N#Cc1ccc(B(OCCNCc2ccccc2)c2ccc(C#N)cc2)cc1 [Example 105, benzylaminoethyl bis(4-cyanophenyl)borinate]",1.05,1.05,–,–
23,23,–,–,–,"N#Cc1ccc(B(SCCN)c2ccc(C#N)cc2)cc1 [Example 106, 2-aminoethylthio bis(4-cyanophenyl)borane]",0.92,0.92,–,–
111,111,–,–,–,"CCC(C)B(O)c1ccccc1 (stereo not drawn) [Example 107, secondary-butyl phenyl borinic acid]",0.98,0.98,–,–
111,111,–,–,–,"CCCCB(O)c1ccccc1 [Example 108, normal-butyl phenyl borinic acid]",1.00,1.00,–,–
121,121,–,–,–,"CC(C)(C)B(OCCN)c1ccccc1 [Example 111, aminoethyl tertiary-butyl phenylborinate]",1.02,1.02,–,–
123,123,–,–,–,"CCCCB(OCCN)c1ccccc1 [Example 112, aminoethyl normal-butyl phenylborinate]",0.99,0.99,–,–
112,112,–,–,–,"OB(CCCCB(O)c1ccccc1)c1ccccc1 [Example 113, 1,4-bis(hydroxyphenylboryl)butane]",0.99,0.99,–,–
101,–,–,–,–,"OB(c1ccc(Cl)cc1)c1ccc(Cl)cc1 [Example 115, bis(4-chlorophenyl)borinic acid]",–,1.07,–,–
108,–,–,–,–,"Cc1ccc(B(OCCN2CCN(CCOB(c3ccc(C)c(Cl)c3)c3ccc(C)c(Cl)c3)CC2)c2ccc(C)c(Cl)c2)cc1Cl [Example 116, bis(di(3-chloro-4-methylphenyl)boryloxyethyl)piperazine]",–,1.02,–,–
88,88,–,–,–,"NCCOB(c1ccccc1)c1cccc(B(OCCN)c2ccccc2)c1 [Example 120, 1,3-bis(phenyl-2-aminoethoxyboryl)benzene]",1.08,1.08,–,–
121,–,–,–,121,"OB(c1ccccc1)c1ccccc1B(O)c1ccccc1 [Example 121, 1,2-bis(phenylhydroxyboryl)benzene]",–,0.94,–,0.94
